Data reported in patent publication US8883827B2, “Azole derivatives as WTN pathway inhibitors” (Oslo University Hospital HF, priority 2009, dated 2014).

What was measured:
[1] = tested on: HeLa (cervical adenocarcinoma) cells; test: MTS cell growth assay (Example 27); assay type: cell-based; settings: 72 h
Experimental: (§1) 3000 cells were seeded on 96 well plates in quadruplicates for each sample. The following day, cell culture medium was mixed with compound No. 1 in various concentrations or with 0.5% DMSO vehicle (control) and added to the wells.
(§2) Eight wells of seeded control cells, defining incubation time 0 (t0), were incubated with 20 μl substrate in 100 μl phenol-free D-MEM (Invitrogen) for 3 hours, as described in the CellTiter 96® AQueous Non-Radioactive Cell Proliferation Assay (MTS) protocol (Promega). The A490 value was recorded.
(§3) Samples were measured after 72 hours. The following formula was used to determine the single well relative A490 sample values: ((Sample A490−Average A490 to)×100)/(Average A490 0.5% DMSO control−Average A490 t0).

MeWo (melanoma) cells = test: MTS cell growth assay (Example 27); assay type: cell-based; settings: 72 h
Experimental: as §1, §2, §3

[2] = tested on: THLE2 (hepatocytes) cells; test: MTS cell growth assay (Example 27); assay type: cell-based; settings: 72 h
Experimental: as §1, §2, §3

[3] = tested on: LiCl-induced activation of canonical Wnt signaling; test: LiCl-induced ST-Luc reporter assay in HEK293 cells; assay type: cell-based; settings: Homo sapiens; HEK293, 25 mM LiCl, 24 h; read-out: IC50, antagonism of LiCl-induced activation of canonical Wnt signaling
Experimental: Transfection of HEK293 cells was performed as described in Example 22, but using 0.23 μg NF-κB-Luciferase and 0.02 μg Renilla. […] All treated reporter cells were finally lysed and the firefly luciferase and Renilla activities were measured on a 20/20n Luminometer (Turner BioSystems) as described in the Dual-Glo™ Luciferase Assay System Technical Manual (Promega).

SW480 colorectal cells = test: SW480 xenograft in CB17/SCID mice; assay type: in vivo
Experimental: SW480 colorectal cells were injected subcutaneously into CB17/SCID mice and palpable tumors were detected within 7 days in 50% of the mice. Randomized groups of mice were injected (i.p.) daily with compound No. 1 at doses of […] or 30 mg/kg (delivered daily for five days followed by a 2-day pause) at termination, plasma was collected and tumors were isolated and weighed. 40 female […] (Taconic) were injected subcutaneously (s.c.) at the right posterior flank with 10^7 SW480 cells diluted in 100 μl PBS. Injections were initiated when tumor formation was visible in 50% of the animals (7 days). Mice were randomized and divided into three treatment groups: 150 mg/kg compound No. 1, 300 mg/kg compound No. 1 and vehicle control 1% Tween® 80 (Sigma). Daily injections (200 μl, i.p.) followed (two day injection intermissions after every fifth injection day) until experiment end (29 days). At the termination day, 24 hours after the last injection, blood was collected after cardiac puncture and the tumors were removed and weighed. The compound concentration in plasma and tumors was determined using an on-line and off-line Solid Phase Extraction-Capillary Liquid Chromatography ([…]) instrumentation coupled to a Time of Flight (TOF) mass spectrometer, as previously described (Wilson, S. R. et al., J. Sep. Sci. 28: 1751-1758, 2005). A Zorbax SB C18 5 μm 150×0.3 mm column (Agilent, […], Calif., USA) was used for separation, and a Knauer K-2600 UV detector was used as a complimentary detector. RNA was isolated from representative groups of tumors (n=5) and analysed by real-time RT-PCR as described in Example 25 for expression of Sp5. Results were calculated as the ratio of expression of Sp5 to a control gene (hGUSB). As described in standard protocols, immunostaining was performed with rabbit polyclonal smooth muscle actin (Abcam) and monoclonal β-catenin (BD Transduction LaboratoriesTM), both diluted 1:1000. Secondary antibodies used were 1:500 diluted Alexa Fluor® 594 goat anti-rabbit antibody and Alexa Fluor® 488 goat anti-mouse antibody. The sections were imaged by a Zeiss Axiovert 200M Fluorescence/Live cell Imaging Microscope with X^40 magnification and the same exposure times.

canonical Wnt signaling = test: IC50 in STF/REN HEK293 cells, 50% Wnt3a-CM; assay type: cell-based; settings: Homo sapiens; STF/REN HEK293, 50% Wnt3a-CM, 24 h
Procedure, shortened: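 HEK293 cells carrying STF/REN reporters seeded at 80,000/well on poly-L-lysine; after 24 h, exposed 24 h to compound in 50% Wnt3a-conditioned medium. Firefly and Renilla luciferase measured by Dual-Glo; IC50 fitted to a Langmuir binding isotherm.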

SW480 cells = test: Growth inhibition (GI50) MTS assay; assay type: cell-based; settings: Homo sapiens, 72 h
Experimental: Growth inhibition curves were prepared using SW480 cells, prepared essentially according to Example 23. SW480 cells (3000 cells per well) were seeded on 96 well plates (eight replicates per treatment). 24 hours later and daily thereafter, cell culture media (including 10% FBS) was mixed with various compound concentrations or with 0.1% DMSO vehicle and then added to the wells. Sixteen wells of seeded control cells, defining incubation time zero (to =24 hour after cell seeding), were incubated with […] substrate in 100 μl of phenol-free D-MEM (Invitrogen) for 2 hours, as described in the CellTiter 96® AQueous Non-Radioactive Cell Proliferation Assay protocol (MTS, Promega). The A490 was recorded. The treatment samples were likewise measured after 72 hours. The following formula was used to determine the single well relative A490 sample values: ((Sample A490−Average A490t0)*100)/(Average A490t720.1% DMSO control−Average A490t0)
XLfit (idbs) was used to determine the IC50 and GI50 values in inhibition experiments. The data were fit to the following formulae:
GI50: Eadie-Hofstee Model: fit=(A+((B*x)/((C*(D+1))+x))) inv=(((y−A)*(C*(D+1)))/((A+B)−y)) res=(y−fit)

Abl(h) = biological target: T1, Abl(h) (Homo sapiens, UniProt P00519); test: Kinase screen; assay type: biochemical; settings: 0.1% DMSO control = 100%
T1 construct: purchased Millipore (KinaseProfiler service)

ALK(h) = biological target: T2, ALK(h) (Homo sapiens, UniProt Q9UM73); test: Kinase screen; assay type: biochemical; settings: 0.1% DMSO control = 100%
T2 construct: purchased Millipore (KinaseProfiler service)

DRAK1(h) = biological target: T3, DRAK1(h) (Homo sapiens, UniProt Q9UEE5); test: Kinase screen; assay type: biochemical; settings: 0.1% DMSO control = 100%
T3 construct: purchased Millipore (KinaseProfiler service)

PDGFRβ(h) = biological target: T4, PDGFRβ(h) (Homo sapiens, UniProt P09619); test: Kinase screen; assay type: biochemical; settings: 0.1% DMSO control = 100%
T4 construct: purchased Millipore (KinaseProfiler service)

Pim-1(h) = biological target: T5, Pim-1(h) (Homo sapiens, UniProt P11309); test: Kinase screen; assay type: biochemical; settings: 0.1% DMSO control = 100%
T5 construct: purchased Millipore (KinaseProfiler service)

PKA(h) = biological target: T6, PKA(h) (Homo sapiens, UniProt P17612); test: Kinase screen; assay type: biochemical; settings: 0.1% DMSO control = 100%
T6 construct: purchased Millipore (KinaseProfiler service)

T2 sequence (Q9UM73 19-1620): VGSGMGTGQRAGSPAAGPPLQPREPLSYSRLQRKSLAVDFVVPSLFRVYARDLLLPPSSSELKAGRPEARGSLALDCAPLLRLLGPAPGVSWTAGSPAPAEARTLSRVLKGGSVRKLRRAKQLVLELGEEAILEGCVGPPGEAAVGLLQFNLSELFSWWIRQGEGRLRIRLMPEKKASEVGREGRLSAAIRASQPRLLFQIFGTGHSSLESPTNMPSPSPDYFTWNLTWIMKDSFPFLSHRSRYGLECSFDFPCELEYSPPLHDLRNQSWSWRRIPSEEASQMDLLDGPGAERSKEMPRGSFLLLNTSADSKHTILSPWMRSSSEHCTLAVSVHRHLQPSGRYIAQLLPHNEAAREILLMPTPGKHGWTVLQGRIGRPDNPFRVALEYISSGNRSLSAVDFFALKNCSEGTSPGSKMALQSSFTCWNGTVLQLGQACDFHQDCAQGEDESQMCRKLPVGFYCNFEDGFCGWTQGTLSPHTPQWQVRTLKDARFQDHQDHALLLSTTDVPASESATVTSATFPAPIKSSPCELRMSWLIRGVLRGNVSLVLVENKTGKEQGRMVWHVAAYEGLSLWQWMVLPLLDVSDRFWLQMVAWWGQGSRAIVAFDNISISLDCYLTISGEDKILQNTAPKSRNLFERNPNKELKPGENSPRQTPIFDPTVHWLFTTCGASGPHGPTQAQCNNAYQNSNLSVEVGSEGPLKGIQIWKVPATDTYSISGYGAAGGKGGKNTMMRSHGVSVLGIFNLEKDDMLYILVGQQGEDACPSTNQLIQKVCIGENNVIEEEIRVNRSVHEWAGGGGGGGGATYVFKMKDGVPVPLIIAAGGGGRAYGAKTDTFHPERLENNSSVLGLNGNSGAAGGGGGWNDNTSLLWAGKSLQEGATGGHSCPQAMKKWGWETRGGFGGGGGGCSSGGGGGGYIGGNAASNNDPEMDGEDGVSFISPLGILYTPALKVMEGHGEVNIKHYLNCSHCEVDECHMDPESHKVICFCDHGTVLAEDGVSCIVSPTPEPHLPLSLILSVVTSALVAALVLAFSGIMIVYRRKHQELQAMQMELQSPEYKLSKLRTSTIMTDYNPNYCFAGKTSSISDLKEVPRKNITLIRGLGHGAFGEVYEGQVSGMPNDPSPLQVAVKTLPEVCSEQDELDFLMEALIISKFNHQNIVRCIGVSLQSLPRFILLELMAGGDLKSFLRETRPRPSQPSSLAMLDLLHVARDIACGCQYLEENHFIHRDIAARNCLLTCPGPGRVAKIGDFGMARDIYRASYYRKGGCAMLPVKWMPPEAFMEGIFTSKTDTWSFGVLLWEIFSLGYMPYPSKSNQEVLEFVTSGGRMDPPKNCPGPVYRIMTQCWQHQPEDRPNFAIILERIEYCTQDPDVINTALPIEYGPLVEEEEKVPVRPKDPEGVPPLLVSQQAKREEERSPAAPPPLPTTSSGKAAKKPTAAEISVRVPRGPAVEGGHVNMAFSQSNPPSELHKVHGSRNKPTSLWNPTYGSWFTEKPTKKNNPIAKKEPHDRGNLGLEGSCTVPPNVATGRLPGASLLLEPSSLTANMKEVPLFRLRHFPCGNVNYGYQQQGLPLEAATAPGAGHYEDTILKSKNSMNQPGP
T3 sequence (Q9UEE5 whole entry): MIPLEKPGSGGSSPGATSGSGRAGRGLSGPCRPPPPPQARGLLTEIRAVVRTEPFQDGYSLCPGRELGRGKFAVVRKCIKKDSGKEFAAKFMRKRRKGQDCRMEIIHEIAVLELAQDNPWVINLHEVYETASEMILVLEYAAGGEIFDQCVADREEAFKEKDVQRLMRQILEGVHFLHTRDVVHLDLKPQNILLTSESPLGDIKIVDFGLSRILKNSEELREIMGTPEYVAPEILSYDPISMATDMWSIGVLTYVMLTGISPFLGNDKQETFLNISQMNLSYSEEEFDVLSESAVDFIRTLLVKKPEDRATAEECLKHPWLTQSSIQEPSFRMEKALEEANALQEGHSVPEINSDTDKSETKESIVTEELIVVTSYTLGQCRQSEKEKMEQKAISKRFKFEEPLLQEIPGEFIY
T4 sequence (P09619 33-1106): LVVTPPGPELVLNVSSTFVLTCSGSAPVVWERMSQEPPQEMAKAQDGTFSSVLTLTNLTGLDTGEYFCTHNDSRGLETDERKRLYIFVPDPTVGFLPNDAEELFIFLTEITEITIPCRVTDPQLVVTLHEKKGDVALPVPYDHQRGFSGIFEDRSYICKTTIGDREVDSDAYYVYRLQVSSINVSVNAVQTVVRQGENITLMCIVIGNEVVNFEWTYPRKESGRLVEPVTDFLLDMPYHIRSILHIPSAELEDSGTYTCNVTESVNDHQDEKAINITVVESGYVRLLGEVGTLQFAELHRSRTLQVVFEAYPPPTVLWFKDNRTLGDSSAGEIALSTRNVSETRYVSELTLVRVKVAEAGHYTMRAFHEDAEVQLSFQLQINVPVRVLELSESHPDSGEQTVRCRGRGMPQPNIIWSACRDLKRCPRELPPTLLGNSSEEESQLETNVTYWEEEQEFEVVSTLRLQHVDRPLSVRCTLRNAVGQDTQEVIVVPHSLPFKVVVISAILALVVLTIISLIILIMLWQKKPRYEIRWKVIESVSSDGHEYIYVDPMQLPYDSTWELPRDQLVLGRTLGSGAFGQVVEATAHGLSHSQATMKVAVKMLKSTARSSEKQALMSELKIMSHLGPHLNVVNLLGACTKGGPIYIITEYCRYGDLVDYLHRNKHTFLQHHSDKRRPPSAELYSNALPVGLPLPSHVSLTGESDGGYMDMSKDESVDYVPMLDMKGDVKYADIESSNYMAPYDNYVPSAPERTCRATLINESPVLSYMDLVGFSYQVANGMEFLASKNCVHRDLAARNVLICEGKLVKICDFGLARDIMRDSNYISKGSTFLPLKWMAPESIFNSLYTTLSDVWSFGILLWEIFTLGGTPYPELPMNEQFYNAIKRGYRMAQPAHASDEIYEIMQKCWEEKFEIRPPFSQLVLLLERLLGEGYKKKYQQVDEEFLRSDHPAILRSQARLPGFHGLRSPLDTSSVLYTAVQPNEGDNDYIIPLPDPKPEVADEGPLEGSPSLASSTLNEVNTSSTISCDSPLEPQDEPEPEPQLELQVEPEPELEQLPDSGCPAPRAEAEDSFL
T1 sequence (P00519 whole entry): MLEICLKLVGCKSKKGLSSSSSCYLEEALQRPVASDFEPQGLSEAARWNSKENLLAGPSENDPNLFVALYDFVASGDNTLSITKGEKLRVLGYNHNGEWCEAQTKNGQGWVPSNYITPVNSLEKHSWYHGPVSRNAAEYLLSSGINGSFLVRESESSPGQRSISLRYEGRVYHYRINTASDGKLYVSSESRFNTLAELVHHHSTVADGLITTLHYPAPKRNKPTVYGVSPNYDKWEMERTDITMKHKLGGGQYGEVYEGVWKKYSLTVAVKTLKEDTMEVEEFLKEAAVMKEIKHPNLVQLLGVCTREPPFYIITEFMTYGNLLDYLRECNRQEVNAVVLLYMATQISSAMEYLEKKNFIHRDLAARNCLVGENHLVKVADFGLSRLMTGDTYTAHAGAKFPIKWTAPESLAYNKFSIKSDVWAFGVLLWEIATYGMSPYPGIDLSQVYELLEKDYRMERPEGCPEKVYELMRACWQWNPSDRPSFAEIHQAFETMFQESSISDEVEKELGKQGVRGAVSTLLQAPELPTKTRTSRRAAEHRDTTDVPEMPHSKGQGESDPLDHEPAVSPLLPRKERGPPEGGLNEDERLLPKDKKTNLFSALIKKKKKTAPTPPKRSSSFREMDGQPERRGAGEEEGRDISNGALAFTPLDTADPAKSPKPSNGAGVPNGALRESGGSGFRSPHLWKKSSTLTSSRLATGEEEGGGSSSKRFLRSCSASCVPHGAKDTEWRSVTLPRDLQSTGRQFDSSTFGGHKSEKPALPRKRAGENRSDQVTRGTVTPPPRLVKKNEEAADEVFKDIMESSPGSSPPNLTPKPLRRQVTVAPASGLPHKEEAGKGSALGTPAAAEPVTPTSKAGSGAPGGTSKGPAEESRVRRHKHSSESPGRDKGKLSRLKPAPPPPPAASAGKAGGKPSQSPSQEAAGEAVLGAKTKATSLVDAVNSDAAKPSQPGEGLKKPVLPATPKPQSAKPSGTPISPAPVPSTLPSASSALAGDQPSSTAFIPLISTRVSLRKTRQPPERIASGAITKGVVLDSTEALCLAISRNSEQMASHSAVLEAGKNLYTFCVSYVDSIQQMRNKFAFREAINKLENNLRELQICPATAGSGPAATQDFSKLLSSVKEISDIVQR
T5 sequence (P11309 whole entry): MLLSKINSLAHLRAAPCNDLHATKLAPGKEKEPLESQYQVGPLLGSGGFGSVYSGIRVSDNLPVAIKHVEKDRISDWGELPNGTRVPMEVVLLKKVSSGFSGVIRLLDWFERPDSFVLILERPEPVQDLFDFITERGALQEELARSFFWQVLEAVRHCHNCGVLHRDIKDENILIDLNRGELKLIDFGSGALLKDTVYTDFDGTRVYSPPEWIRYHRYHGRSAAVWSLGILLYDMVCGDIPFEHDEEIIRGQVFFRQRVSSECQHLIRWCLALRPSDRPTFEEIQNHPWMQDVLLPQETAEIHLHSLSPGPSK

COc1ccc(-n2c(SCc3nc(-c4ccc(C)cc4)no3)nnc2-c2ccncc2)cc1 [Compound 1]
growth reduction [1]: only a minor growth reduction | growth reduction (MeWo (melanoma) cells): only a minor growth reduction | growth reduction [2]: only a minor growth reduction | IC50 [3]: 0.42 µM | reduction in tumor size, on average (SW480 colorectal cells; 150 mg/kg i.p. daily (5 days on, 2 off), 29 days): 33% | reduction in tumor size, on average (SW480 colorectal cells; 300 mg/kg i.p. daily (5 days on, 2 off), 29 days): 35% | adverse side effects, such as weight loss, during treatment (SW480 colorectal cells; 150 or 300 mg/kg i.p., 29 days): No obvious adverse side effects | SP5 mRNA in tumors (real-time RT-PCR, relative to hGUSB) (SW480 colorectal cells; both 150 mg/kg and 300 mg/kg doses): down-regulated | IC50 (canonical Wnt signaling): 1.01 µM | GI50 (SW480 cells): 11.5 µM | activity at 10 µM (Abl(h)): 93% | activity at 10 µM (ALK(h)): 91% | activity at 10 µM (DRAK1(h)): 116% | activity at 10 µM (PDGFRβ(h)): 129% | activity at 10 µM (Pim-1(h)): 91% | activity at 10 µM (PKA(h)): 86%
